Experimental data reported in ChEMBL document CHEMBL1158031, “Biscembranes from the soft coral Sarcophyton glaucum” (J Nat Prod, 2006).
Calls of active or inactive are those of the source. The rule behind the calls is not given here.

What was measured:
HL-60 [1] = experiment: Cytotoxicity against human HL-60 upto 100 uM; format: functional, cell-based
HL-60 [2] = experiment: Cytotoxicity against human HL-60; format: functional, cell-based

Compound | Activity (HL-60 [1]) | IC50 (HL-60 [2]) [µM]
COC(=O)[C@]12CC(=O)[C@H](C(C)C)CC(=O)/C(C)=C/CC/C(C)=C/C(=O)[C@H]1CC(C)=C1C[C@H](OC(C)=O)[C@](C)(O)[C@H]3CC[C@@](C)(O)[C@H](CC/C(C)=C/[C@@H]12)O3 | inactive | 
COC(=O)[C@]12CC(=O)[C@H](C(C)C)CC(=O)/C(C)=C/CC/C(C)=C/C(=O)[C@H]1CC(C)=C1C[C@H](O)[C@](C)(O)[C@H]3CC[C@@](C)(O)[C@H](CC/C(C)=C/[C@@H]12)O3 | inactive | 
COC(=O)[C@]12CC(=O)[C@H](C(C)C)CC(=O)/C(C)=C\CC/C(C)=C\C(=O)[C@H]1CC(C)=C1C[C@H](OC(C)=O)[C@](C)(O)[C@H]3CC[C@@](C)(O)[C@H](CC/C(C)=C/[C@@H]12)O3 [BISGLAUCUMLIDE D] |  | 42.3
COC(=O)[C@]12CC(=O)[C@H](C(C)C)CC(=O)/C(C)=C/CC/C(C)=C\C(=O)[C@H]1CC(C)=C1C[C@H](OC(C)=O)[C@](C)(O)[C@H]3CC[C@@](C)(O)[C@H](CC/C(C)=C/[C@@H]12)O3 [BISGLAUCUMLIDE C] |  | 33.7
